Laboratory results as given in the supplement of paper PMC10627819.

How the values were obtained:
Experiment in all cases: fitness (endpoint OD595 vs no drug) (fraction); higher = more growth
S. pneumoniae D39V = tested on: S. pneumoniae D39V
Procedure, shortened: (§1)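 Fitness is computed from the optical density at which cultures reach stationary phase, divided by the robust mean of no-drug control wells. Any value above 1 is set to 1. Cultures started at OD595 0.01 in 384-well plates with TSB, LB Lennox or CY at 37 °C, and OD595 was read every 30 min for 14 h against a first-reading background.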

B. subtilis 168 = tested on: B. subtilis 168
Procedure, shortened: as §1

S. aureus DSM 20231 = tested on: S. aureus DSM 20231
Procedure, shortened: as §1
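Further: OD595 on entry to stationary phase over no-drug wells; at most 1.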

CN(C)[C@@H]1C(O)=C(C(N)=O)C(=O)[C@@]2(O)C(O)=C3C(=O)c4c(O)ccc(Cl)c4[C@@](C)(O)[C@H]3C[C@@H]12 [Chlortetracycline] + CC(=O)NC[C@H]1CN(c2ccc(N3CCOCC3)c(F)c2)C(=O)O1 [Linezolid]
Conditions	fitness
B. subtilis 168, first compound 0.0475 µg/mL, partner 0.25 µg/mL	0.0413
B. subtilis 168, first compound 0.0475 µg/mL, partner 0.5 µg/mL	0.0371
B. subtilis 168, first compound 0.095 µg/mL, partner 0.25 µg/mL	0.0555
B. subtilis 168, first compound 0.095 µg/mL, partner 0.5 µg/mL	0.0371
B. subtilis 168, first compound 0.19 µg/mL, partner 0.125 µg/mL	0.0875
B. subtilis 168, first compound 0.19 µg/mL, partner 0.25 µg/mL	0.0467
B. subtilis 168, first compound 0.19 µg/mL, partner 0.5 µg/mL	0.0344
S. aureus DSM 20231, first compound 0.012 µg/mL, partner 0.125 µg/mL	0.516
S. aureus DSM 20231, first compound 0.012 µg/mL, partner 0.25 µg/mL	0.423
S. aureus DSM 20231, first compound 0.012 µg/mL, partner 0.5 µg/mL	0.135
S. aureus DSM 20231, first compound 0.024 µg/mL, partner 0.25 µg/mL	0.179
S. aureus DSM 20231, first compound 0.024 µg/mL, partner 0.5 µg/mL	0.0849
S. aureus DSM 20231, first compound 0.048 µg/mL, partner 0.125 µg/mL	0.141
S. aureus DSM 20231, first compound 0.048 µg/mL, partner 0.25 µg/mL	0.0729
S. aureus DSM 20231, first compound 0.048 µg/mL, partner 0.5 µg/mL	0.0288
S. pneumoniae D39V, first compound 0.012 µg/mL, partner 0.105 µg/mL	0.785
S. pneumoniae D39V, first compound 0.012 µg/mL, partner 0.21 µg/mL	0.685
S. pneumoniae D39V, first compound 0.012 µg/mL, partner 0.42 µg/mL	0.422
S. pneumoniae D39V, first compound 0.024 µg/mL, partner 0.105 µg/mL	0.739
S. pneumoniae D39V, first compound 0.024 µg/mL, partner 0.21 µg/mL	0.585
S. pneumoniae D39V, first compound 0.024 µg/mL, partner 0.42 µg/mL	0.251
S. pneumoniae D39V, first compound 0.048 µg/mL, partner 0.105 µg/mL	0.609
S. pneumoniae D39V, first compound 0.048 µg/mL, partner 0.21 µg/mL	0.387
S. pneumoniae D39V, first compound 0.048 µg/mL, partner 0.42 µg/mL	0.211
S. pneumoniae D39V, first compound 0.375 µg/mL, partner 0.2 µg/mL	0.0262
S. pneumoniae D39V, first compound 0.375 µg/mL, partner 0.4 µg/mL	0.028
S. pneumoniae D39V, first compound 0.375 µg/mL, partner 0.8 µg/mL	0.0276
S. pneumoniae D39V, first compound 0.75 µg/mL, partner 0.2 µg/mL	0.025
S. pneumoniae D39V, first compound 0.75 µg/mL, partner 0.4 µg/mL	0.04
S. pneumoniae D39V, first compound 0.75 µg/mL, partner 0.8 µg/mL	0.0503
S. pneumoniae D39V, first compound 1.5 µg/mL, partner 0.2 µg/mL	0.0494
S. pneumoniae D39V, first compound 1.5 µg/mL, partner 0.4 µg/mL	0.0334
S. pneumoniae D39V, first compound 1.5 µg/mL, partner 0.8 µg/mL	0.044

one replicate
Conditions	fitness
B. subtilis 168, first compound 0.0475 µg/mL, partner 0.0625 µg/mL	0.751
B. subtilis 168, first compound 0.095 µg/mL, partner 0.0625 µg/mL	0.53
B. subtilis 168, first compound 0.19 µg/mL, partner 0.0625 µg/mL	0.213
S. aureus DSM 20231, first compound 0.006 µg/mL, partner 0.125 µg/mL	0.649
S. aureus DSM 20231, first compound 0.006 µg/mL, partner 0.25 µg/mL	0.59
S. aureus DSM 20231, first compound 0.006 µg/mL, partner 0.5 µg/mL	0.213
S. aureus DSM 20231, first compound 0.012 µg/mL, partner 1 µg/mL	0.0536
S. aureus DSM 20231, first compound 0.024 µg/mL, partner 1 µg/mL	0.0397
S. aureus DSM 20231, first compound 0.048 µg/mL, partner 1 µg/mL	0.0171

CN(C)[C@@H]1C(O)=C(C(N)=O)C(=O)[C@@]2(O)C(O)=C3C(=O)c4c(O)ccc(Cl)c4[C@@](C)(O)[C@H]3C[C@@H]12 [Chlortetracycline] + CN[C@H](CC(C)C)C(=O)N[C@H]1C(=O)N[C@@H](CC(N)=O)C(=O)N[C@H]2C(=O)N[C@H]3C(=O)N[C@H](C(=O)N[C@H](C(=O)O)c4cc(O)cc(O)c4-c4cc3ccc4O)[C@H](O)c3ccc(c(Cl)c3)Oc3cc2cc(c3O[C@@H]2O[C@H](CO)[C@@H](O)[C@H](O)[C@H]2O[C@H]2C[C@](C)(N)[C@H](O)[C@H](C)O2)Oc2ccc(cc2Cl)[C@H]1O [Vancomycin]
Conditions	fitness
S. aureus DSM 20231, first compound 0.012 µg/mL, partner 0.1875 µg/mL	0.541
S. aureus DSM 20231, first compound 0.012 µg/mL, partner 0.375 µg/mL	0.499
S. aureus DSM 20231, first compound 0.012 µg/mL, partner 0.75 µg/mL	0.548
S. aureus DSM 20231, first compound 0.024 µg/mL, partner 0.375 µg/mL	0.28
S. aureus DSM 20231, first compound 0.048 µg/mL, partner 0.1875 µg/mL	0.103
S. aureus DSM 20231, first compound 0.048 µg/mL, partner 0.375 µg/mL	0.0854
S. aureus DSM 20231, first compound 0.048 µg/mL, partner 0.75 µg/mL	0.0806
S. pneumoniae D39V, first compound 0.012 µg/mL, partner 0.03125 µg/mL	0.883
S. pneumoniae D39V, first compound 0.012 µg/mL, partner 0.0625 µg/mL	0.903
S. pneumoniae D39V, first compound 0.012 µg/mL, partner 0.125 µg/mL	0.706
S. pneumoniae D39V, first compound 0.024 µg/mL, partner 0.03125 µg/mL	0.832
S. pneumoniae D39V, first compound 0.024 µg/mL, partner 0.0625 µg/mL	0.829
S. pneumoniae D39V, first compound 0.048 µg/mL, partner 0.03125 µg/mL	0.734
S. pneumoniae D39V, first compound 0.048 µg/mL, partner 0.0625 µg/mL	0.688
S. pneumoniae D39V, first compound 0.375 µg/mL, partner 0.125 µg/mL	0.0536
S. pneumoniae D39V, first compound 0.375 µg/mL, partner 0.25 µg/mL	0.0553
S. pneumoniae D39V, first compound 0.375 µg/mL, partner 0.5 µg/mL	0.0628
S. pneumoniae D39V, first compound 0.75 µg/mL, partner 0.125 µg/mL	0.0485
S. pneumoniae D39V, first compound 0.75 µg/mL, partner 0.25 µg/mL	0.0618
S. pneumoniae D39V, first compound 0.75 µg/mL, partner 0.5 µg/mL	0.0842
S. pneumoniae D39V, first compound 1.5 µg/mL, partner 0.125 µg/mL	0.0391
S. pneumoniae D39V, first compound 1.5 µg/mL, partner 0.25 µg/mL	0.0305
S. pneumoniae D39V, first compound 1.5 µg/mL, partner 0.5 µg/mL	0.0442

S. aureus DSM 20231, first compound 0.006 µg/mL, one replicate
Conditions	fitness
partner 0.1875 µg/mL	0.806
partner 0.375 µg/mL	0.776
partner 0.75 µg/mL	0.79

CN(C)[C@@H]1C(O)=C(C(N)=O)C(=O)[C@@]2(O)C(O)=C3C(=O)c4c(O)ccc(Cl)c4[C@@](C)(O)[C@H]3C[C@@H]12 [Chlortetracycline] + CO/N=C(\C(=O)N[C@@H]1C(=O)N2C(C(=O)[O-])=C(C[N+]3(C)CCCC3)CS[C@H]12)c1csc(N)n1 [Cefepime]
Conditions	fitness
S. aureus DSM 20231, first compound 0.012 µg/mL, partner 0.125 µg/mL	0.63
S. aureus DSM 20231, first compound 0.012 µg/mL, partner 0.25 µg/mL	0.617
S. aureus DSM 20231, first compound 0.012 µg/mL, partner 0.5 µg/mL	0.636
S. aureus DSM 20231, first compound 0.024 µg/mL, partner 0.125 µg/mL	0.388
S. aureus DSM 20231, first compound 0.048 µg/mL, partner 0.125 µg/mL	0.274
S. aureus DSM 20231, first compound 0.048 µg/mL, partner 0.25 µg/mL	0.304
S. aureus DSM 20231, first compound 0.048 µg/mL, partner 0.5 µg/mL	0.274
S. pneumoniae D39V, first compound 0.012 µg/mL, partner 0.007 µg/mL	0.964
S. pneumoniae D39V, first compound 0.012 µg/mL, partner 0.014 µg/mL	0.949
S. pneumoniae D39V, first compound 0.012 µg/mL, partner 0.028 µg/mL	0.836
S. pneumoniae D39V, first compound 0.024 µg/mL, partner 0.007 µg/mL	0.936
S. pneumoniae D39V, first compound 0.024 µg/mL, partner 0.014 µg/mL	0.86
S. pneumoniae D39V, first compound 0.024 µg/mL, partner 0.028 µg/mL	0.811
S. pneumoniae D39V, first compound 0.048 µg/mL, partner 0.007 µg/mL	0.659
S. pneumoniae D39V, first compound 0.048 µg/mL, partner 0.014 µg/mL	0.661
S. pneumoniae D39V, first compound 0.048 µg/mL, partner 0.028 µg/mL	0.693
S. pneumoniae D39V, first compound 0.375 µg/mL, partner 0.0078 µg/mL	0.0772
S. pneumoniae D39V, first compound 0.375 µg/mL, partner 0.0155 µg/mL	0.049
S. pneumoniae D39V, first compound 0.375 µg/mL, partner 0.031 µg/mL	0.0797
S. pneumoniae D39V, first compound 0.75 µg/mL, partner 0.0078 µg/mL	0.0925
S. pneumoniae D39V, first compound 0.75 µg/mL, partner 0.0155 µg/mL	0.0687
S. pneumoniae D39V, first compound 0.75 µg/mL, partner 0.031 µg/mL	0.0749
S. pneumoniae D39V, first compound 1.5 µg/mL, partner 0.0078 µg/mL	0.0695
S. pneumoniae D39V, first compound 1.5 µg/mL, partner 0.0155 µg/mL	0.0769
S. pneumoniae D39V, first compound 1.5 µg/mL, partner 0.031 µg/mL	0.0751

S. aureus DSM 20231, first compound 0.006 µg/mL, one replicate
Conditions	fitness
partner 0.125 µg/mL	0.792
partner 0.25 µg/mL	0.774
partner 0.5 µg/mL	0.722
